The values below come from patent US4565816A, “Piperazine derivatives and pharmaceutical composition containing them” (Sandoz Ltd., priority 1982, dated 1986).

Assay [1] deals with spontaneously beating guinea-pig atria. The assay is described as follows: decrease of heart rate of spontaneously beating guinea-pig atria in vitro. Conditions: Cavia porcellus, read-out: EC25 (concentration decreasing the rate of the spontaneously beating atria by 25%). The protocol:
For example, in guinea-pig atria in vitro [method of R. P. Hof and G. Scholtysik, J. of Cardiovascular Pharmacology 5, 176-183 (1983)] a decrease of the heart rate of spontaneously beating atria is observed at a bath concentration of from about 1 μM to about 100 μM. The concentration decreasing the rate of the spontaneously beating atria by 25% (EC25 values) for some compounds of the present invention and the standard Alinidin are given in the following Table: […]

Assay [2] relates to mice. Put plainly: inhibition of locomotion in mice. As to conditions: Mus musculus, po, 1 hour after administration, minimum dose at which significant inhibition was observed, read-out: Locomotor inhibition EDmin. The class given is in vivo, mouse (male, OF-1). How it is done: In particular, the compounds of formulae I and VII are useful as neuroleptic agents in the treatment of e.g. psychotic disorders such as schizophrenia, as indicated in standard tests, e.g. by an inhibition of locomotion in mice. In this test groups of 3 male mice (18-24 g, OF-1, Sandoz Basle) received 3.2, 10, 32, 100 and […]. of the test drug. 1 hour after drug administration the mice were observed individually and their locomotion compared with that of control. The locomotion of the animals was observed and the EDmin (the minimum dose at which significant inhibition was observed) determined.

Assay [3] addresses T1, ^3 H-Spiperone binding sites (Bos taurus, UniProt P20288).
T1 construct: fresh calf brain striatal tissue was homogenized; from tissue; host or cells: calf brain striatum, membranes
The assay is described as follows: ^3 H-Spiperone binding (calf brain striatal tissue). Conditions: for pIC50: calf brain striatal membranes, 0.1 nM ^3 H-Spiperone, 5×10^-7 M Cinanserin, 40 minutes at room temperature, read-out: Receptor binding IC50 ^3 H-Spiperone; for effect in the ^3 H-Spiperone binding test compared with Clozapine: in words, relative to Clozapine. How it is done:
The compounds of formulae I and VII bind further on ^3 H-Spiperone binding sites in the brain [modified method of J. Leysen et al., Biochem. Pharmac. […] The test was performed as follows: fresh calf brain striatal tissue was homogenized in the 25 fold volume of Tris buffer (pH 7.4, 50 mM, 120 mM sodium chloride) and centrifuged. The pellets were suspended in the 22 fold volume of Tris buffer, incubated for 15 minutes at 37° C. and centrifuged. The pellets were suspended in the 300 fold volume of Tris buffer. […] After incubation for 40 minutes at room temperature, the assay mixtures were raidly filtered through Whatman GF/B filter, the filters washed twice with 5 ml of ice cold Tris buffer and scintillation-counted.

For assay [4], the target named is α1-receptors. Put plainly: ^3 H-Prazosin binding assay for α1-receptors (calf brain cortex). Conditions: calf brain cortex membranes, 0.3 nM ^3 H-Prazosin, pH 7.7, 40 min room temperature; read-out: IC50, inhibition of specific ^3 H-Prazosin binding. How it is done: The compounds of formulae I and VII are furthermore useful as anti-hypertensive agents, as indicated in standard tests, for example in the ^3 H-Prazosin binding assay for α1 -receptors [modified method of Greengrass P., et al., Eur. J. Pharmac. 55, 323-326 (1979)]. The test was performed as follows:
Fresh calf brain cortex tissue is homogenized in a 20 fold volume of Tris-HCl buffer (50 mM, pH 7.7), using a Polytron PT 20, and centrifuged at 30'000 xg for 25 min. The pellets are resuspended in a 13 fold volume of the same buffer, incubated for 15 min at 37° C., and recentrifuged at 50'000 xg for 11 min. The pellets of this centrifugation are frozen at -20° C. and resuspended in a 60 fold volume of the same buffer as above before use for the binding experiment. The composition of the assay mixtures (total volume=2 ml) is as follows: 50 mM Tris-HCl pH 7.7, membranes corresponding to 30 mg of original tissue weight, and 0.3 nM ^3 H-Prazosin. The assays for the definition of nonspecific binding additionally contain phentolamine at a concentration of 10 μM. To assess the potency of drugs in inhibiting specific ^3 H-Prazosin binding (difference between total and nonspecific binding), the test compounds are added to give 5 to 9 different concentrations between 1 nM and 10 μM, each in duplicate. After incubation for 40 min at room temperature, the assay mixtures are rapidly filtered through Whatman GF/B filters and washed twice with 5 ml of ice cold Tris buffer. The radioactivity of the filters is estimated by scintillation counting.

Assay [5] relates to female normotonic rats. Put plainly: blood pressure / heart rate in anaesthetized normotonic rats. The class given is in vivo, rat (female, Sprague-Dawley). Conditions: Rattus norvegicus, iv; urethane-anaesthetized rats, cumulative i.v. doses 3 to 1443 μg/kg, interpolated; read-out: ED75 (dose required to reduce the blood pressure on the heart rate to 75% of pretreatment values). How it is done:
In another test female normotonic rats (200-350 g, Sprague-Dawley, Suddeutsche Tierfarm, Tuttlingen, FRG) were anaesthetized with urethane (1.5-1.75 g/kg i.p. in 2 portions) and a tracheal cannula was inserted. Blood pressure and heart rate were recorded from the carotid artery by conventional methods. Test drug were administered by the jugular or the femoral vein. Body temperature was maintained at 37° C. by means of a temperature regulator (Alfos MK-4) triggered by a thermistor on the animal. After adaptation, increasing doses of the test drug were injected i.v. to give the following cumulative doses: 3, 13, 43, 143, […] and 1443 μg/kg. ED 75% is the dose required to reduce the blood pressure on the heart rate to 75% of pretreatment values. It was obtained through interpolation. The ED75 of the Example 4 compound is 6 μg, of Example 5s compound 3 μg, of Example 8 g 4 μg and of Guanfacine 57 μg.

pIC50: −log10 of the molar value.

T1 sequence (P20288 whole entry): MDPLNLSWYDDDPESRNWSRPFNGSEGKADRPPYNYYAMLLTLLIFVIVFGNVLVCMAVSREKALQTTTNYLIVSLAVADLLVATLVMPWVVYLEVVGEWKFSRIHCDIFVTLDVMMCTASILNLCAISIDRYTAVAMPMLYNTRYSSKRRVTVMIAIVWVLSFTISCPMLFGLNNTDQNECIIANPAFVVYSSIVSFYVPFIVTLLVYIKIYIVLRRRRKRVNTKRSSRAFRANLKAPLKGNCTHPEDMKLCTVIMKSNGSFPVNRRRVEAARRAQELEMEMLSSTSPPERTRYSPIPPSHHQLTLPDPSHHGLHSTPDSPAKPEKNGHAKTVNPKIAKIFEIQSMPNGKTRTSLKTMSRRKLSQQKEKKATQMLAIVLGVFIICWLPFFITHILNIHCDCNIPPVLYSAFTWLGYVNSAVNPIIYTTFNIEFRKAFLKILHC

On to `C=CCN(C1=NCCN1)c1c(Cl)cccc1Cl` [Alinidin, reference compound], for which the EC25 in assay [1] was 6500 nM.

As for `CN1CCN(C2=Nc3cc(Cl)ccc3Nc3ccccc32)CC1` [Clozapine, reference compound], the minimal effective dose in assay [2] turned out to be 3.2 mg/kg.

For the molecule `O=C(CCCN1CCN(c2ccc3[nH]cnc3n2)CC1)c1ccc(F)cc1` [Example 1, 1-(4-Fluorophenyl)-4-[4-(1H-imidazo[4,5-b]pyridin-5-yl)-1-piperazinyl]-1-butanone], in assay [2], the minimal effective dose is 1 mg/kg. Besides, in assay [3], the pIC50 (usually the IC50 on a negative log10 scale, so that one unit is a factor of ten) was 6.51 and the “effect in the ^3 H-Spiperone binding test compared with Clozapine” value is reported as “stronger effects”. In addition, the EC25 in assay [1] was found to be 7800 nM.

Consider `Cc1nc2ccc(N3CCN(CCCC(=O)c4ccc(F)cc4)CC3)nc2n1C` [Example 3d], for which the pIC50 in assay [4] was 8.66.

`CCc1nc2ccc(N3CCN(CCCC(=O)c4ccc(F)cc4)CC3)nc2[nH]1` [Example 3i]: the minimal effective dose in assay [2] worked out at 3.2 mg/kg. Moreover, in assay [3], the pIC50 was 6.61 and the “effect in the ^3 H-Spiperone binding test compared with Clozapine” value was “stronger effects”.

For `O=C(CCCN1CCN(c2cc3[nH]cnc3cn2)CC1)c1ccc(F)cc1` [Example 3r], the minimal effective dose in assay [2] is at most 3.2 mg/kg. The pIC50 in assay [3] was 6.36.

For `CC(=O)Nc1cnc(N2CCN(CCCC(=O)c3ccc(F)cc3)CC2)cc1NC(C)=O` [Example 4, 4-[4-(4,5-Diacetylamino-2-pyridinyl)-1-piperazinyl]-1-(4-fluorophenyl)-1-butanone], in assay [4], the pIC50 is above 9.00. The ED75 in assay [5] was 0.006 mg/kg.

Take `CC(=O)Nc1ccc(N2CCN(CCCC(=O)c3ccc(F)cc3)CC2)nc1NC(C)=O` [Example 5c]: the minimal effective dose in assay [2] is 1 mg/kg. Also, in assay [3], the negative logarithm of the IC50 (pIC50) is 5.34.

As to `CC(=O)Nc1cnc(N2CCN(CCCOc3ccc(F)cc3)CC2)cc1NC(C)=O` [Example 5s], the ED75 in assay [5] was 0.003 mg/kg.

`Cc1nc2ccc(N3CCN(CCCC(=O)c4ccc(F)cc4)CC3)nc2nc1C` [Example 7, 4-[4-(2,3-Dimethyl-pyrido[2,3-b]pyrazin-6-yl)-1-piperazinyl]-1-(4-fluorophenyl)-1-butanone]: the minimal effective dose in assay [2] was determined as 10 mg/kg. For the same molecule, in assay [3], the pIC50 is 6.69.

`Cc1nc2cnc(N3CCN(CCCC(=O)c4ccc(F)cc4)CC3)cc2nc1C` [Example 8c]: in assay [2], the minimal effective dose came out at 10 mg/kg. In addition, the pIC50 in assay [3] is 6.92.

Regarding `O=C(CCCN1CCN(c2cc3nccnc3cn2)CC1)c1ccc(F)cc1` [Example 8d], the EC25 in assay [1] was 4000 nM.

Consider `Fc1ccc(OCCCN2CCN(c3cc4nccnc4cn3)CC2)cc1` [Example 8g], for which, in assay [5], the ED75 stood at 0.004 mg/kg. Moreover, in assay [1], the EC25 was found to be 2150 nM.

For `N=C(N)NC(=O)Cc1c(Cl)cccc1Cl` [Guanfacine, reference compound], in assay [4], the negative logarithm of the IC50 (pIC50) is 5.43. Moreover, in assay [5], the ED75 worked out at 0.057 mg/kg.
